Row | melting point | SMILES
1 | 161 to 163 °C | COc1ccccc1-c1sc2ccc(I)cc2c1-c1c(OC)c(C)nn(C)c1=O [Compound No. 2-131, 4-(5-iodo-2-(2-methoxyphenyl)benzo[b]thiophen-3-yl)-5-methoxy-2,6-dimethylpyridazin-3(2H)-one]
2 | 219 to 221 °C | COc1ccccc1-c1sc2ccc(N)cc2c1-c1c(OC)c(C)nn(C)c1=O [Compound No. 2-174, 4-(5-amino-2-(2-methoxyphenyl)benzo[b]thiophen-3-yl)-5-methoxy-2,6-dimethylpyridazin-3(2H)-one]

Source: patent US20230085307A1, “PYRIDAZINONE COMPOUND AND HERBICIDE” (NISSAN CHEMICAL CORPORATION, priority 2019, published 2023)
